Source: patent EP0604983B1, “Naphthalene derivatives” (Mitsubishi Chemical Corporation, priority 1992, dated 1994)
Marks after values point to notes of the source that are not given here.

System: KK-Ay male mice
Test: Blood sugar and blood triglyceride (TG) lowering test in KK-Ay mice, test compound mixed with powder food
Format: in vivo
Settings: KK-Ay male mice; dose c.a. 30 mg/kg/day (footnote a) mixed with powder food for four days; plasma triglyceride 5th day; vs control group
Excerpt: The effect of the compound of the present invention on reducing blood sugar and blood lipid levels based on the ability of improving insulin resistance has been determined by the following test.
KK-Ay male mice of five to six week age were obtained from Nihon CREA. The mice have been bred with a powder feed (MF powders for breeding rats and mice, Oriental Yeast Co.) from 7 days prior to the test. The mice of nine to eighteen week age having body weights of 35 g or more were used for the test.
The blood sugar values were measured by withdrawing blood (20 µl) from animal's tail vein using a heparin-treated capillary, centrifuging the blood to obtain plasma, and measuring the glucose level in the plasma by the glucose-oxidase method. The triglyceride (TG) levels in plasma were measured by the glycerol enzyme method. Five mice in a group having 200 mg/dl or more of the blood sugar level were used for one test.
The test compounds were mixed with powder food such that the average dosage of the former is 10 - 100 mg/kg/day, and the mixture was administered to the mice for four days. Blood was withdrawn from the animal's tail vein before administration, and five days after administration, and blood sugar and TG levels were measured using the methods mentioned above. The amount of the food ingested was measured every day during the test period, and the average of the amounts for four days was calculated.
The ability of reducing blood sugar level was determined as described below. Namely, the means of the blood sugar values at the time before administration of the test compound in a control group (a group to which the test compound was not administered) and an administration group (a group to which the test compound was administered) (such values are referred to as Mcon and Mad, respectively) and the means of the blood sugar values of the control group and the administration group on 5th day after administration (such values are referred to as Con and Ad, respectively) were determined. The blood sugar lowering effect found in the administration group was expressed by the following formula. Blood sugar lowering effect(%) = 1-(Ad/Mad)/(Con/Mcon)x100 [formula]
The blood TG lowering ratio (%) was measured by the same procedure as that described above. All the values were statistically evaluated under significance level P=0.05.

SMILES | TG lowering ratio (%)
O=C1NC(=O)C(=Cc2ccc3cc(OCc4ccccc4)ccc3c2)S1 [Example 13, 5-(6-benzyloxy-2-naphthyl)-methylene-thiazolidine-2,4-dione] | 21.0%
O=C1NC(=O)C(=Cc2ccc3cc(OCc4ccccc4F)ccc3c2)S1 [Example 15, 5-[6-(2-fluorobenzyloxy)-2-naphthyl]-methylene-thiazolidine-2,4-dione] | 38.8%
O=C1NC(=O)C(=Cc2ccc3cc(OCc4cccc(F)c4)ccc3c2)S1 [compound 16] | 22.3%
O=C1NC(=O)C(=Cc2ccc3cc(OCc4ccc(F)cc4)ccc3c2)S1 [compound 17] | 24.4%
O=C1NC(=O)C(=Cc2ccc3cc(OCc4c(F)cccc4F)ccc3c2)S1 [compound 49] | 43.4*** %
O=C1NC(=O)C(=Cc2ccc3cc(OCc4c(F)cccc4C(F)(F)F)ccc3c2)S1 [compound 50] | 27.7** %

Same assay, conditions: KK-Ay male mice; dose c.a. 50 mg/kg/day mixed with powder food for four days; plasma triglyceride 5th day; vs control group

SMILES | TG lowering ratio (%)
O=C1NC(=O)C(=Cc2ccc3cc(OCc4ccccc4Cl)ccc3c2)S1 [compound 18] | 53.8* %
O=C1NC(=O)C(=Cc2ccc3cc(OCc4ccc(Cl)cc4)ccc3c2)S1 [compound 19] | 21.7%
O=C1NC(=O)C(=Cc2ccc3cc(OCc4ccc(Br)cc4)ccc3c2)S1 [compound 21] | 14.7%
Cc1ccccc1COc1ccc2cc(C=C3SC(=O)NC3=O)ccc2c1 [compound 22] | 9.5%
N#Cc1ccc(COc2ccc3cc(C=C4SC(=O)NC4=O)ccc3c2)cc1 [compound 32] | 39.6* %
O=C1NC(=O)C(=Cc2ccc3cc(OCc4ccccc4[N+](=O)[O-])ccc3c2)S1 [compound 33] | 16.0%
O=C1NC(=O)C(=Cc2ccc3cc(OCc4ccc([N+](=O)[O-])cc4)ccc3c2)S1 [compound 35] | 56.9%
COC(=O)c1ccc(COc2ccc3cc(C=C4SC(=O)NC4=O)ccc3c2)cc1 [compound 39] | 16.0%
O=C1NC(=O)C(=Cc2ccc3cc(OCc4ccccc4C(F)(F)F)ccc3c2)S1 [compound 46] | 51.0** %
O=C1NC(=O)C(=Cc2ccc3cc(OCc4ccc(C(F)(F)F)cc4)ccc3c2)S1 [compound 48] | 25.6%

Same assay, conditions: KK-Ay male mice; dose c.a. 100 mg/kg/day (footnote b) mixed with powder food for four days; plasma triglyceride 5th day; vs control group

SMILES | TG lowering ratio (%)
O=C1NC(=O)C(=Cc2ccc3cc(OCCc4ccccc4)ccc3c2)S1 [compound 14] | 19.9

Same assay, conditions: KK-Ay male mice; mixed with powder food for four days; Dose: c.a. 10 mg/kg/day; plasma triglyceride (glycerol enzyme method) on 5th day vs control group

SMILES | TG lowering ratio (%)
O=C1NC(=O)C(Cc2ccc3cc(OCc4ccccc4)ccc3c2)S1 (stereo not drawn) [Example 2] | 9.1* %
O=C1NC(=O)C(Cc2ccc3cc(OCc4ccccc4F)ccc3c2)S1 (stereo not drawn) [Example 4, 5-[6-(2-fluorobenzyloxy)-2-naphthyl]-methyl-thiazolidine-2,4-dione] | 41.6* %
O=C1NC(=O)C(Cc2ccc3cc(OCc4ccc(F)cc4)ccc3c2)S1 (stereo not drawn) [Example 6] | 37.7* %
O=C1NC(=O)C(Cc2ccc3cc(OCc4ccccc4Cl)ccc3c2)S1 (stereo not drawn) [Example 7] | 28.3%
O=C1NC(=O)C(Cc2ccc3cc(OCc4ccc(Cl)cc4)ccc3c2)S1 (stereo not drawn) [Example 8] | 9.4%
O=C1NC(=O)C(Cc2ccc3cc(OCc4ccccc4C(F)(F)F)ccc3c2)S1 (stereo not drawn) [Example 10] | 37.2%
CCc1ccc(CCOc2ccc(CC3SC(=O)NC3=O)cc2)nc1 (stereo not drawn) [Pioglitazone, pioglitazone, reference compound] | -4.0%

Same assay, conditions: KK-Ay male mice; mixed with powder food for four days; footnote a): Dose c.a. 100 mg/kg/day; plasma triglyceride (glycerol enzyme method) on 5th day vs control group

SMILES | TG lowering ratio (%)
Cc1c(C)c2c(c(C)c1O)CCC(C)(COc1ccc(CC3SC(=O)NC3=O)cc1)O2 (stereo not drawn) [CS-045, reference compound] | -18.5
O=C1NC(=O)C(Cc2ccc3cc(OCc4ccccn4)ccc3c2)S1 (stereo not drawn) [Example 1, 5-[6-(2-pyridylmethyloxy)-2-naphthyl]-methyl-thiazolidine-2,4-dione] | 56.4
O=C1NC(=O)C(Cc2ccc3cc(Oc4ccccc4)ccc3c2)S1 (stereo not drawn) [Example 3] | 31.3
